# Experiments:
# retinal ganglion cells [1] = assay: RGC density in retinal wholemounts of the MB mouse model; type: in vivo
# Experimental: FIG. 2 confirms that the mouse model for glaucoma causes RGC degeneration. Specifically, microbeads (MBs) were injected into the anterior chamber of a mouse eye. The MBs increase intraocular IOP above 15 mm Hg by blocking outflow of the aqueous humor within the anterior chamber of the eye. MBs were reinjected as needed to maintain a high IOP, typically one injection every two weeks. Contralateral eyes were injected intraocularly with the vehicle PBS (phosphate buffered saline) as controls. […] IOP levels were measured at least twice weekly before and after intraocular injections. After injections, mice recovered for 48 hours before IOP measurements resumed. Following 4 or 8 weeks of IOP elevation, mice were intracardially perfused with 4% paraformaldehyde in 1×PBS to fix the retinas. Retinas were then removed and processed for immunohistochemistry (IHC). Whole retinas were rinsed with 1×PBS three times at room temperature then incubated in blocking buffer (1×PBS+1% BSA). […] The density of RGCs was imaged with a confocal microscope (Zeiss LSM 510) and quantified by counting NeuN-, CFP- and/or Tuj-1—labeled somata in the RGC layer of the retinal wholemount preparation. […]
# RGD density was quantified in retinas isolated from TuJ-1^+ mice and transgenic Thy1-CRP^+ transgenic mice that had been injected with either MBs or vehicle (PBS) then dosed with either compound 1 or vehicle (PBS). […] TuJ-1 was quantified by immunohistochemistry using a Tuj-1-specific antibody conjugated to a fluorescent Alexa 488 or Alexa 594 secondary antibody. […] For fluorescence immunocytochemistry, retinal wholemounts were washed in PBS, then placed for 30 min. to 1 hour in blocking solution (10 ml PBS, 30 μL Triton-X 100, 100 mg bovine serum albumin, 100 μL 10% w/v Na azide solution) in OCT (Ted Pella, Redding, Pa.). […]
# retinal ganglion cells [2] = assay: Hypotonic swelling-induced calcium influx in retinal ganglion cells (Fura-2); type: cell-based
# Description: Cells were labeled with fluorescent calcium indicator dye Fura-2 and exposed to hypotonic solutions in which extracellular sodium was replaced by the osmotically inert substance mannitol, as described in […] et al. (J. Neurosci. 2011 May 11; 31(19):7089-101; PMID 21562271).
# [3] = system: retinal neurons (RGCs) and glia (Müller cells); assay: Hypotonic stimuli: cell swelling (change in cell area) and [Ca++]i; type: cell-based
# Description: FIG. 18A illustrates the effect of hypotonic stimuli on cell swelling as measured by change in cell area. Hypotonic stimuli were generated by replacing extracellular sodium levels to lower osmolarity from 300 mOsm to 190 mOsm.
# retinal ganglion cells [4] = assay: TUNEL assay of apoptotic cell death in retina; type: cell-based; settings: Compound 1 1 uM, RuR 10 μM
# Experimental: Terminal deoxynucleotidyl transferase-mediated dUTP-biotin nick end labeling (TUNEL) is a common method for detecting fragmentation that results from apoptotic signaling cascades. Retinas were embedded, cryosectioned, and processed for the TUNEL assay following the protocol by Gavrieli et al. (1992). After 30 min. rehydration in 70% ethanol, 2×5 min. rinses in PBS and 1% Triton-X in 1% citrate buffer (pH 7.3), the slides were subjected to a final rinse in PBS. Slides were then incubated for 30 min. in the reaction buffer (30 mM Trizma-HCl, 140 mM Na^+ cacodylate, 1.0 mM CaCl2, 0.2% Triton X-100, pH 7.2). Positive controls were treated with DNAse I (Roche Diagnostics; Branford, Conn.; 10 U/ml) in the reaction buffer. Next, slides were treated for 1 hour with 0.03 units/pi terminal transferase and 4 μM biotin-16-dUTP (Roche Diagnostics). The reaction was terminated in 30 mM Na+ citrate, 300 mM NaCl and 0.2% Triton X-100 in PBS (5 min.) and rinsed in PBS (2×5 min), exposed to 1% bovine serum albumin in PBS for 20 min and rinsed. Apoptotic cells were visualized with a confocal microscope (Zeiss LSM510) and categorized by size. […] This was blocked by RuR and by the TRPV4 antagonist Compound 1.
# TRPV4 = TRPV4 (Mus musculus, UniProt Q9EPK8); assay: AGB cation influx into retinal cells (anti-AGB antibody); type: cell-based; set-up: these two cell types express TRPV4 channels in the mouse retina; from tissue; host or cells: mouse retina; settings: mouse retina
# Experimental: FIG. 16 illustrates the effect of the TRPV4 agonist GSK on cation influx into mouse retinal cells of the mouse retina. The influx was determined using the anti-AGB antibody, as described by Marc RE (J Comp Neurol 407(1): 47-64, 1999). AGB is a membrane permeant cation that can flow through most known cation channels. Using an anti-AGB antibody, it can be determined where the cation flux occurs and, therefore, which cells are activated.
# Chain of TRPV4 (Q9EPK8 whole entry): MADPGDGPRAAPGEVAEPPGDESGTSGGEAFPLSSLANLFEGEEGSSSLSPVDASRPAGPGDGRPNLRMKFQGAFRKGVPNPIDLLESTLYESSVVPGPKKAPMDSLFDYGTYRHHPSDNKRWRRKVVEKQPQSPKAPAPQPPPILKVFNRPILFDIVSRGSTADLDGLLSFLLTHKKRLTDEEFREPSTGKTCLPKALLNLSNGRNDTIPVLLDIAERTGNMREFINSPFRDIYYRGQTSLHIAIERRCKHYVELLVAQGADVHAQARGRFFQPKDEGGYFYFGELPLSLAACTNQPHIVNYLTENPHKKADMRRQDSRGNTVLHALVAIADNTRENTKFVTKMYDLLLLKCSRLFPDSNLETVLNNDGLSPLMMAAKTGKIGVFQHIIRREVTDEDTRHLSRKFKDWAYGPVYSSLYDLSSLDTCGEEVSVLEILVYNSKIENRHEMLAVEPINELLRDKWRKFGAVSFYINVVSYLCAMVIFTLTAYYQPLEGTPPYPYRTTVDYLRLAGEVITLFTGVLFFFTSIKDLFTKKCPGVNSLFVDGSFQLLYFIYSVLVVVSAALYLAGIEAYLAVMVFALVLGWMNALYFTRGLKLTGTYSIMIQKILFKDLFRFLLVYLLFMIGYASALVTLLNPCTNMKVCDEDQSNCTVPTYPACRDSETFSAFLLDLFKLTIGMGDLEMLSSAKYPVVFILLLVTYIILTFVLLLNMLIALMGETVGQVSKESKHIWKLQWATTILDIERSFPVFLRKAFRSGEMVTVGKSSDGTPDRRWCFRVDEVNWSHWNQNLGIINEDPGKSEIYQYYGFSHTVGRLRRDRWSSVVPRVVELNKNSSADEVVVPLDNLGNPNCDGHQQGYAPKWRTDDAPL
smiles,measurement,setting,value
"Cc1c(C(=O)Nc2cccc(C(F)(F)F)c2)cc(-c2ccccc2)n1CCCN1CCOCC1 [Compound 1, N-(3-(trifluoromethyl)phenyl)-2-methyl-1-(3-morpholinopropyl)-5-phenyl-1H-pyrrole-3-carboxamide]","TuJ-1+ cells in the alpha, beta and omega regions","retinal ganglion cells [1]; MB- or PBS-injected eyes, IP dosing",rescues RGCs across all regions of the retina
same,"CFP+ cells in the alpha, beta and omega regions","retinal ganglion cells [1]; Thy1-CFP transgenic mice, MB- or PBS-injected eyes, IP dosing",rescues RGCs across all regions of the retina
same,density of RGCs (TuJ-1+ cells and Thy1:CFP+ cells),"retinal ganglion cells [1]; after 8 weeks of increased IOP, MB-injected mice",RGC loss was rescued
same,effect of cell swelling on intracellular calcium levels in ganglion cells,retinal ganglion cells [2]; 140 mOsm saline,blocked
same,pressure-dependent influx of calcium in RGCs (FIG. 17C),retinal ganglion cells [2]; hypotonic solutions,prevents the pressure-dependent influx of calcium in RGCs
same,hypotonic stimuli-induced increase in [Ca++]i (FIG. 18B),[3]; hypotonic stimuli,inhibited
same,cell swelling (change in cell area),[3]; osmolarity lowered from 300 mOsm to 190 mOsm,prevented hypotonic stimuli-mediated cell swelling to the same extent as BAPTA-AM
same,apoptotic cell death (TUNEL) induced by hypotonic swelling,retinal ganglion cells [4]; 190 mOsm saline,block apoptotic cell death
same,apoptotic cell death (TUNEL) induced by the TRPV4 agonist GSK,retinal ganglion cells [4]; GSK 100 nM,block apoptotic cell death
same,antagonism of the effect of GSK on AGB cation influx,TRPV4,strongly antagonized

# — patent publication US20130303539A1, “COMPOUNDS WITH TRPV4 ACTIVITY, COMPOSITIONS AND ASSOCIATED METHODS THEREOF” (priority 2012, published 2013)
